Experimental findings from ChEMBL document CHEMBL1201862, “PubChem BioAssay data set” (2004) are described below.

Among the test systems are ACHN; HL-60; KM12; MDA-MB-231; NCI-H226; NCI-H522; OVCAR-4; OVCAR-5; PC-3; SF-268; SK-MEL-28; SK-MEL-5; SW-620; T47D; U-251; UACC-257.
Assay in all cases: NCI anticancer screen, dose series, 48 h

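Compound exposure: 48 hours, 5 concentrations, 96-well plates. At the GI50, growth is halved.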 Active and inactive are the calls of the source. Cut-off read from the data, not from the text of the source: active = GI50 up to about 1.1 µM and inactive = higher. Bounds are passed on as bounds.

As to `O=C(/C=C/c1ccccc1)N1CCCCC1`, the GI50 in the assay on ACHN, in the assay with HL-60, with KM12, with MDA-MB-231, in the assay with NCI-H226 and in the assay on NCI-H522 was > 100 µM (inactive) throughout. The GI50 with OVCAR-4, in the assay on OVCAR-5, in the assay on PC-3, in the assay with SF-268, with SK-MEL-28 and in the assay with SK-MEL-5 was > 100 µM (inactive) in each case. Moreover, the GI50 in the assay on SW-620, in the assay on T47D, in the assay with U-251 and in the assay with UACC-257 was > 100 µM (inactive) in each case.

For the compound `COC(=O)C1=CC(=O)OC1(OO)c1ccc(Br)cc1` (stereo not drawn), the GI50 was > 100 µM (inactive) with ACHN; 40.3 µM (inactive) with HL-60; > 100 µM (inactive) in the assay on KM12; > 100 µM (inactive) in the assay on MDA-MB-231; > 100 µM (inactive) in the assay with NCI-H226; > 100 µM (inactive) in the assay with NCI-H522. Also, the GI50 in the assay on OVCAR-4 is > 100 µM (inactive); with OVCAR-5 it was > 100 µM (inactive); with PC-3, > 100 µM (inactive); in the assay on SK-MEL-28, > 100 µM (inactive); in the assay on SK-MEL-5, > 100 µM (inactive); in the assay on SW-620, 62.8 µM (inactive). Besides, the GI50 with T47D, in the assay with U-251 and with UACC-257 was > 100 µM (inactive) in each case.

Consider `N#CC(C#N)/N=N/c1ccc(-c2nc3ccccc3[nH]2)cc1`, for which the GI50 in the assay on ACHN is 13.7 µM (inactive); in the assay with HL-60 it was 0.288 µM (active); in the assay with KM12 it was 59.2 µM (inactive); in the assay with MDA-MB-231, 13.7 µM (inactive); with NCI-H226 it was 50.1 µM (inactive); with NCI-H522 it was 2.81 µM (inactive). The GI50 in the assay with OVCAR-4 was 22 µM (inactive); in the assay with OVCAR-5 it was > 100 µM (inactive); in the assay with PC-3, 15.8 µM (inactive); in the assay with SF-268, 28.2 µM (inactive); with SK-MEL-28, 20.2 µM (inactive); in the assay on SK-MEL-5, 35.6 µM (inactive). In addition, the GI50 in the assay with SW-620 is 11.5 µM (inactive); with T47D it was 16.6 µM (inactive); in the assay on U-251, 28.1 µM (inactive); with UACC-257, 14.9 µM (inactive).

Take `OC(CN1CCCCC1)c1ccc(/C=C/c2ccc(Cl)cc2)cc1` (stereo not drawn): the GI50 with ACHN is > 100 µM (inactive); in the assay on HL-60 it was 6.14 µM (inactive); in the assay with KM12 it was 17.2 µM (inactive); in the assay on MDA-MB-231, > 100 µM (inactive); in the assay on NCI-H226, > 100 µM (inactive); in the assay on NCI-H522, 21.3 µM (inactive). Moreover, the GI50 is 83.6 µM (inactive) in the assay with OVCAR-4; 31.8 µM (inactive) with OVCAR-5; 90.6 µM (inactive) in the assay on PC-3; > 100 µM (inactive) in the assay with SF-268; 22.3 µM (inactive) in the assay on SK-MEL-28; 22.3 µM (inactive) in the assay with SK-MEL-5. For the same compound, the GI50 in the assay on SW-620 was 46.9 µM (inactive); in the assay with T47D, > 100 µM (inactive); in the assay on U-251, > 100 µM (inactive); in the assay with UACC-257 it was 21.6 µM (inactive).

In the case of `N#Cc1c(N)nc2c3c1NC(=O)C(C(N)=O)C3c1ccccc1O2` (stereo not drawn), the GI50 was > 100 µM (inactive) in the assay with ACHN; 99.3 µM (inactive) in the assay with HL-60; > 100 µM (inactive) with KM12; 28.6 µM (inactive) with MDA-MB-231; > 100 µM (inactive) in the assay with NCI-H226; 22.1 µM (inactive) in the assay with NCI-H522. Also, the GI50 is 95.5 µM (inactive) in the assay with OVCAR-4; > 100 µM (inactive) with OVCAR-5; > 100 µM (inactive) in the assay with PC-3; 26.2 µM (inactive) in the assay on SF-268; > 100 µM (inactive) with SK-MEL-28; > 100 µM (inactive) in the assay with SK-MEL-5. The GI50 with SW-620 was > 100 µM (inactive); in the assay on T47D it was 95.9 µM (inactive); in the assay with U-251, > 100 µM (inactive); in the assay with UACC-257 it was > 100 µM (inactive).

Regarding `C1C2CC3CC1CC(c1nn4c(C56CC7CC(CC(C7)C5)C6)nnc4s1)(C2)C3`, the GI50 in the assay on ACHN, in the assay on HL-60, in the assay with KM12, with MDA-MB-231, in the assay with NCI-H226 and in the assay on NCI-H522 was > 100 µM (inactive) throughout. In addition, the GI50 with OVCAR-4, in the assay with OVCAR-5, in the assay on PC-3, with SF-268, in the assay with SK-MEL-28 and with SK-MEL-5 was > 100 µM (inactive) each time. Also, the GI50 in the assay with SW-620, with T47D and in the assay on U-251 was > 100 µM (inactive) each time.

For the compound `CCc1n[nH]c(=O)n1/N=C/c1ccc(/C=N/n2c(CC)n[nH]c2=O)cc1`, the GI50 in the assay on ACHN, in the assay with HL-60, with KM12, in the assay with MDA-MB-231, with NCI-H226 and in the assay on NCI-H522 was > 100 µM (inactive) in each case. The GI50 in the assay with OVCAR-4, with OVCAR-5, in the assay on PC-3, in the assay with SF-268, in the assay on SK-MEL-28 and in the assay with SK-MEL-5 was > 100 µM (inactive) each time. Moreover, the GI50 in the assay with SW-620, with T47D, in the assay on U-251 and in the assay with UACC-257 was > 100 µM (inactive) in each case.

With `COC1OC(C)/C(=N/O)C2OC(C)(C)OC12` (stereo not drawn), the GI50 in the assay on ACHN, with HL-60, in the assay with KM12, in the assay on MDA-MB-231, in the assay with NCI-H226 and in the assay with NCI-H522 was > 100 µM (inactive) in each case. For the same compound, the GI50 in the assay with OVCAR-4, in the assay on OVCAR-5, with PC-3, in the assay with SF-268, in the assay with SK-MEL-28 and with SK-MEL-5 was > 100 µM (inactive) in each case. The GI50 in the assay with SW-620, in the assay on T47D, in the assay with U-251 and in the assay with UACC-257 was > 100 µM (inactive) in each case.

As to `CCOC(=O)c1ccc(NC(=O)Oc2ccc3c(C)cc(=O)oc3c2)cc1`, the GI50 was 41.4 µM (inactive) with ACHN; 30.4 µM (inactive) in the assay with HL-60; 20.9 µM (inactive) in the assay with KM12; 30.3 µM (inactive) in the assay on MDA-MB-231; 32.7 µM (inactive) with NCI-H226; 18.7 µM (inactive) in the assay with NCI-H522. Moreover, the GI50 in the assay on OVCAR-4 was 50.1 µM (inactive); in the assay with OVCAR-5 it was 23.1 µM (inactive); in the assay on PC-3 it was 38.4 µM (inactive); with SF-268 it was 37 µM (inactive); in the assay on SK-MEL-28, 34.9 µM (inactive); with SK-MEL-5, 14.7 µM (inactive). The GI50 was 36.2 µM (inactive) with SW-620, 22.2 µM (inactive) in the assay with T47D, 32.9 µM (inactive) with U-251 and 43.2 µM (inactive) in the assay on UACC-257.

`CC#CS(=O)(=O)c1ccccc1`: the GI50 in the assay with ACHN was 3.57 µM (inactive); with HL-60, 1.8 µM (inactive); in the assay with MDA-MB-231 it was 10.6 µM (inactive); in the assay on NCI-H226 it was 9.91 µM (inactive); in the assay with NCI-H522 it was 1.62 µM (inactive); in the assay with OVCAR-4, 3.19 µM (inactive). Moreover, the GI50 in the assay on OVCAR-5 was 5.58 µM (inactive); in the assay with PC-3, 12.1 µM (inactive); in the assay on SF-268, 15.9 µM (inactive); in the assay with SK-MEL-28 it was 3.13 µM (inactive); in the assay on SK-MEL-5, 2.81 µM (inactive); in the assay with SW-620, 3.78 µM (inactive). Also, the GI50 is 2.33 µM (inactive) in the assay with T47D, 12.9 µM (inactive) with U-251 and 2.88 µM (inactive) in the assay with UACC-257.

For the compound `COC(=O)c1ccc(C)cc1CC1Cc2ccc(C)cc2C1=O` (stereo not drawn), the GI50 is 22 µM (inactive) in the assay on ACHN; 3.47 µM (inactive) in the assay with HL-60; 4.27 µM (inactive) with KM12; 14.9 µM (inactive) with MDA-MB-231; 6.04 µM (inactive) in the assay with NCI-H226; 1.47 µM (inactive) in the assay with NCI-H522. Besides, the GI50 was 16.1 µM (inactive) in the assay with OVCAR-4; 19.5 µM (inactive) with OVCAR-5; 12.1 µM (inactive) in the assay with PC-3; 12.2 µM (inactive) in the assay on SF-268; 8.43 µM (inactive) with SK-MEL-28; 7.29 µM (inactive) in the assay with SK-MEL-5. In addition, the GI50 is 4.17 µM (inactive) with SW-620, 5.55 µM (inactive) in the assay on T47D, 4.07 µM (inactive) in the assay on U-251 and 13.2 µM (inactive) with UACC-257.

Turning to `CCOC(=O)c1c(SC(=O)c2ccc(OC)cc2)n(-c2ccccc2)c(=S)n(-c2ccccc2)c1=O`, the GI50 with ACHN was > 100 µM (inactive); in the assay with HL-60, 40.3 µM (inactive); in the assay with KM12, > 100 µM (inactive); with MDA-MB-231 it was 24 µM (inactive); in the assay on NCI-H226 it was 84.1 µM (inactive); with NCI-H522, 49.4 µM (inactive). In addition, the GI50 in the assay on OVCAR-4 was > 100 µM (inactive); in the assay with OVCAR-5 it was > 100 µM (inactive); in the assay on PC-3, 59.3 µM (inactive); with SF-268 it was 18.6 µM (inactive); with SK-MEL-28 it was > 100 µM (inactive); with SW-620 it was 26.7 µM (inactive). Further, the GI50 in the assay on T47D is > 100 µM (inactive); in the assay with U-251 it was 33.6 µM (inactive); in the assay with UACC-257 it was > 100 µM (inactive).

Turning to `OCCN(C1=NCCN1)/[N+](=C/c1ccccc1O)[CH-]c1ccccc1O`, the GI50 was > 100 µM (inactive) with ACHN; > 100 µM (inactive) in the assay on HL-60; > 100 µM (inactive) in the assay on KM12; > 100 µM (inactive) with MDA-MB-231; 28.6 µM (inactive) in the assay on NCI-H226; > 100 µM (inactive) with NCI-H522. For the same compound, the GI50 in the assay with OVCAR-4, in the assay on OVCAR-5, in the assay on PC-3, in the assay on SF-268, in the assay on SK-MEL-5 and in the assay on SW-620 was > 100 µM (inactive) each time. The GI50 in the assay with T47D, in the assay on U-251 and in the assay with UACC-257 was > 100 µM (inactive) each time.
